Experimental data published in patent US10849907B2, “Imidazopyridine derivatives and the use thereof as medicament” (Boehringer Ingelheim International GmbH, priority 2017, dated 2020).

Columns and labels:
[1] = Metabolic stability in pooled human liver microsomes; type: in vitro ADME; conditions: pH 7.6; pooled human liver microsomes 1 mg/mL, 1 μM compound, 37° C., NADPH; read-out: Half-life - t½ human liver microsomes
Excerpt: Stability in human liver microsomes refers to the susceptibility of compounds to biotransformation in the context of selecting and/or designing drugs with favorable pharmacokinetic properties. The primary site of metabolism for many drugs is the liver. Human liver microsomes contain the cytochrome P450s (CYPs), and thus represent a model system for studying drug metabolization in vitro. Enhanced stability in human liver microsomes is associated with several advantages, including increased bioavailability and adequate half-life, which can enable lower and less frequent dosing of patients. Thus, enhanced stability in human liver microsomes is a favorable characteristic for compounds that are to be used for drugs.
The metabolic degradation of the test compound was assayed at 37° C. with pooled human liver microsomes. The final incubation volume of 60 μl per time point contains TRIS buffer pH 7.6 at room temperature (0.1 M), magnesium chloride (5 mM aqueous solution), microsomal protein (1 mg/mL for human) and the test compound at a final concentration of 1 μM. Following a short preincubation period at 37° C., the reactions were initiated by addition of betanicotinamide adenine dinucleotide phosphate, reduced form (NADPH, 1 mM), and terminated by transferring an aliquot into solvent after different time points. After centrifugation (10000 g, 5 min), an aliquot of the supernatant was assayed by LC-MS/MS for the amount of parent compound. The half-life was determined by the slope of the semi-logarithmic plot of the concentration-time profile.

human BCRP = target: T1, human BCRP (Homo sapiens, UniProt Q9UNQ0); experiment: MDCK assay BCRP: permeability across MDCK-BCRP monolayers; type: in vitro ADME; conditions: for Papp A→B: MDCK-BCRP monolayers, apical-to-basal, pH 7.4, 1 or 10 μM; for efflux ratio: pH 7.4, MDCK-BCRP, Papp (b-a) divided by Papp (a-b)
T1 construct: expressed in transfected cells; host or cells: MDCKII (Madin-Darby canine kidney) cells
T1 sequence (Q9UNQ0 1-655): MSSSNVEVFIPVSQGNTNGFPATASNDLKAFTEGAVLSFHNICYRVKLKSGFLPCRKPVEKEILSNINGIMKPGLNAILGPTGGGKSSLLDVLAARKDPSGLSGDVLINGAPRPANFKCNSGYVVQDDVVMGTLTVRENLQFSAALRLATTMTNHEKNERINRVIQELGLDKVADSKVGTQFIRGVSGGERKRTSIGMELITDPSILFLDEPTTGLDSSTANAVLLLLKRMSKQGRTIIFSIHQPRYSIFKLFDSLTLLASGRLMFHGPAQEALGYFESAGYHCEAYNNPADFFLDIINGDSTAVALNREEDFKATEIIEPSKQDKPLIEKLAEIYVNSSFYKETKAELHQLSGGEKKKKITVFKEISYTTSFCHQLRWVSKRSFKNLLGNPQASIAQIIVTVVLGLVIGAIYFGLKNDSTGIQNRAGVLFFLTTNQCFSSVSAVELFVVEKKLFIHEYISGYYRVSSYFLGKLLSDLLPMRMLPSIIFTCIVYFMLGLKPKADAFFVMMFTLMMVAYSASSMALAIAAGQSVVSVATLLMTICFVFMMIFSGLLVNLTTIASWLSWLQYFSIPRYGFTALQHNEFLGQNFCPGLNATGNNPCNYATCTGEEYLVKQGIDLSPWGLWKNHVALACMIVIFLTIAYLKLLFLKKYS
Procedure: The MDCK assays provide information on the potential of a compound to pass the blood brain barrier. Permeability measurements across polarized, confluent MDCK-MDR1 cell monolayers grown on permeable filter supports are used as an in vitro absorption model: apparent permeability coefficients (PE) of the compounds across the MDCK-MDR1 cell monolayers are measured (pH 7.4, 37° C.) in apical-to-basal (AB) and basal-to-apical (BA) transport direction. The AB permeability (PEAB) represents drug absorption from the blood into the brain and the BA permeability (PEBA) drug efflux from the brain back into the blood via both, passive permeability as well as active transport mechanisms mediated by efflux and uptake transporters that are expressed on the MDCK-MDR1 cells, predominantly by the overexpressed human MDR1. Identical or similar permeabilities in both transport directions indicate passive permeation, vectorial permeability points to additional active transport mechanisms. Higher PEBA than PEAB (PEBA/PEAB >5) indicates the involvement of active efflux mediated by MDR1, which might compromise the goal to achieve sufficient brain exposure. Therefore, this assay provides valuable support for selection of compounds applicable for further in vivo testing. High permeability not limited by efflux at the blood brain barrier is a favourable characteristic for compounds that are to be used for drugs acting primarily in the CNS. Similar concepts are applicable to the MDCK BCRP assay and its interpretation; consequently, to ensure high permeability at the blood brain barrier, it is highly preferred to minimize the efflux (efflux <5) at both MDR1 and BCRP transporters.
Apparent permeability coefficients (Papp) of the compounds across the MDCK-BCRP monolayers (MDCKII cells transfected with human BCRP cDNA expression plasmid) are measured in apical-to-basal (AB) and basal-to-apical (BA) direction. MDCK-BCRP cells (6×10^5 cells/cm^2) are seeded on filter inserts (Corning, Transwell, polycarbonate, 0.4 μm pore size) and cultured for 9 to 10 days. Compounds dissolved in DMSO stock solution (1-20 mM) are diluted with HTP-4 aqueous buffer (128.13 mM NaCl, 5.36 mM KCl, 1 mM MgSO4, 1.8 mM CaCl2, 4.17 mM NaHCO3, 1.19 mM Na2HPO4, 0.41 mM NaH2PO4, 15 mM HEPES, 20 mM glucose, pH 7.4) supplemented with 0.25% BSA to prepare the transport solutions (final concentration: 1 or 10 μM, final DMSO <=0.5%). The transport solution is applied to the apical or basolateral donor side for measuring A-B or B-A permeability, respectively. The receiver side contains HTP-4 buffer supplemented with 0.25% BSA. Samples are collected at the start and end of experiment from the donor and at various time intervals for up to 2 hours also from the receiver side for concentration measurement by HPLC-MS/MS. Sampled receiver volumes are replaced with fresh receiver solution. Efflux ratio is calculated dividing the Papp (b-a) values by the Papp (a-b) values.

half-life at 1 µM [1] [min]	Papp A→B (human BCRP) [×10⁻⁶ cm/s]	efflux ratio (human BCRP)	Structure (SMILES)
14	46	1.8	Cc1ccccc1COC(=O)N1CCO[C@H](c2nc3cccnc3[nH]2)C1 [Example 8]
24	63	1	Cc1ccc(COC(=O)N2CCO[C@H](c3nc4cccnc4[nH]3)C2)c(F)c1 [Example 11]
27	68	1.2	O=C(OCc1ccccc1Cl)N1CCO[C@H](c2nc3cccnc3[nH]2)C1 [Example 14]
86	33	2.8	O=C(OCc1cccc(F)c1F)N1CCO[C@H](c2nc3cccnc3[nH]2)C1 [Example 15]
> 130	37	2.5	O=C(OCc1ccccc1)N1CCO[C@H](c2nc3cccnc3[nH]2)C1 [Example 17]
130	61	1.6	O=C(OCc1ccc(F)cc1F)N1CCO[C@H](c2nc3cccnc3[nH]2)C1 [Example 19]
130	24	5.2	O=C(OCc1ccccc1F)N1CCO[C@H](c2nc3cccnc3[nH]2)C1 [Example 27]

Further lines, the compound ahead of its results:

Structure (SMILES)	half-life at 1 µM [1] [min]	Papp A→B (human BCRP) [×10⁻⁶ cm/s]	efflux ratio (human BCRP)
O=C(OCc1cccc(F)c1)N1CCO[C@H](c2nc3cccnc3[nH]2)C1 [Example 1]	38	38	2.4
O=C(OCc1ccc(F)cc1)N1CCO[C@H](c2nc3cccnc3[nH]2)C1 [Example 2]	76	34	2.9
Cc1cccc(F)c1COC(=O)N1CCO[C@H](c2nc3cccnc3[nH]2)C1 [Example 10]	12	40	2.2
Cc1ccc(COC(=O)N2CCO[C@H](c3nc4cccnc4[nH]3)C2)cc1F [Example 12]	36	69	1
O=C(OCc1ccc(F)cc1Cl)N1CCO[C@H](c2nc3cccnc3[nH]2)C1 [Example 13]	37	72	0.9
O=C(OCc1c(F)cccc1F)N1CCO[C@H](c2nc3cccnc3[nH]2)C1 [Example 16]	> 130	49	2.1
Cc1ccc(COC(=O)N2CCO[C@H](c3nc4cccnc4[nH]3)C2)cc1 [Example 18]	51	53	1.2
O=C(OCc1ccc(C(F)F)cc1)N1CCO[C@H](c2nc3cccnc3[nH]2)C1 [Example 26]	> 130	24	2.7
O=C(OCc1ccc(Cl)cc1)N1CCO[C@H](c2nc3cccnc3[nH]2)C1 [Example 28]	> 130	56	1.2
Cc1ccc(COC(=O)N2CCO[C@H](c3nc4cc(F)cnc4[nH]3)C2)cc1 [Example 31]	16	85	0.7
